{
  "source": "PubChem BioAssay AID1259409",
  "about": "(Chemical Carcinogenesis Research Information System (CCRIS), 2018)",
  "origin": "cited, not measured here",
  "system": "rodent chemically induced tumor inhibition, incidence and multiplicity",
  "experiment": "CCRIS tumor inhibitor studies",
  "conditions": "Carcinogen: 2,2'-DIHYDROXY-DI-N-PROPYLNITROSAMINE, 13147-25-6, Carcinogen: 2,2'-DIHYDROXY-DI-N-PROPYLNITROSAMINE, 13147-25-6, Dose [Inhibitor]: 0, Route [Inhibitor]: ORAL, Species: RAT, Strain/Sex: F344/MALE, Promoter: NONE USED",
  "data": [
    {"smiles": "CCCCCCCCCCCCCCCC(=O)CC(=O)CCCCCCCCCCCCCCC", "values": [
      {"measurement": "tumour outcome (control, treated, inhibition, significance)", "setting": "36909-64-6, N-ETHYL-N-HYDROXYETHYL- NITROSAMINE, 3,2'DIMETHYL-4-A, 36909-64-6, N-ETHYL-N-HYDROXYETHYL- NITROSAMINE, 3,2'DIMETHYL-4-A, 0.2% IN DIET BEGINNING 1 WK POST LAST CARCINOGEN DOSE AND CONTINUING FOR 32 WK (STUDY DURATION: 36 WK), Target Tissue: Type of Lesion: URINARY BLADDER: CARCINOMA, Dose [Carcinogen]: 1000 MG/KG IP DHPN 2X, 1500 MG/KG GAV EHEN 2X AND 75 MG/KG SC DMAB 3X GIVEN OVER THE INITIAL 3 WK AT 3-4 D INTERVALS", "result": "1/14 (7%), 1/15 (7%), 0%, not significant"},
      {"measurement": "tumour outcome (control, treated, inhibition, significance)", "setting": "53609-64-6, N-ETHYL-N-HYDROXYETHYL- NITROSAMINE, 3,2'-DIMETHYL-4-, 53609-64-6, N-ETHYL-N-HYDROXYETHYL- NITROSAMINE, 3,2'-DIMETHYL-4-, 0.2% IN DIET BEGINNING 1 WK POST LAST CARCINOGEN DOSE AND CONTINUING FOR 32 WK (STUDY DURATION: 36 WK), Target Tissue: Type of Lesion: LARGE INTESTINE: ADENOMA, Dose [Carcinogen]: 1000 MG/KG IP DHPN 2X, 1500 MG/KG GAV EHEN 2X AND 75 MG/KG SC DMAB 3X GIVEN OVER THE INITIAL 3 WK PERIOD AT 3-4 D INTERV", "result": "7/14 (50%), 7,15 (47%), 6%, not calculated"},
      {"measurement": "outcome", "setting": "53609-64-6, N-ETHYL-N-HYDROXYETHYL- NITROSAMINE, 3,2'-DIMETHYL-4-, 53609-64-6, N-ETHYL-N-HYDROXYETHYL- NITROSAMINE, 3,2'-DIMETHYL-4-, 0.2% IN DIET BEGINNING 1 WK POST LAST CARCINOGEN DOSE AND CONTINUING FOR 32 WK (STUDY DURATION: 36 WK), Target Tissue: Type of Lesion: URINARY BLADDER: PAPILLOMA, Dose [Carcinogen]: 1000 MG/KG IP DHPN 2X, 1500 MG/KG GAV EHEN 2X AND 75 MG/KG SC DMAB 3X GIVEN OVER THE INITIAL 3 WK PERIOD AT 3-4 D INTERV", "result": "0/14 (0%), 3/15 (20%), -100%, not calculated"},
      {"measurement": "tumour outcome (control, treated, inhibition, significance)", "setting": "53609-64-6, N-ETHYL-N-HYDROXYETHYL- NITROSAMINE, 3,2'-DIMETHYL-4-, 53609-64-6, N-ETHYL-N-HYDROXYETHYL- NITROSAMINE, 3,2'-DIMETHYL-4-, 02% IN DIET BEGINNING 1 WK POST LAST CARCINOGEN DOSE AND CONTINUING FOR 32 WK (STUDY DURATION: 36 WK), Target Tissue: Type of Lesion: LUNG: CARCINOMA, Dose [Carcinogen]: 1000 MG/KG IP DHPN 2X , 1500 MG/KG GAV EHEN 2X AND 75 MG/KG SC DMAB 3X GIVEN OVER THE INITIAL 3 WK PERIOD AT 3-4 D INTER", "result": "1/14 (7%), 3/15 (20%), -186%, not calculated"},
      {"measurement": "tumour outcome (control, treated, inhibition, significance)", "setting": "53609-64-6, N-ETHYL-N-HYDROXYETHYL- NITROSAMINE, 3,2'DIMETHYL-4-A, 53609-64-6, N-ETHYL-N-HYDROXYETHYL- NITROSAMINE, 3,2'DIMETHYL-4-A, 0.2% IN DIET BEGINNING 1 WK POST LAST CARCINOGEN DOSE AND CONTINUING FOR 32 WK (STUDY DURATION: 36 WK), Target Tissue: Type of Lesion: LIVER: HEPATOCELLULAR CARCINOMA, Dose [Carcinogen]: 1000 MG/KG IP DHPN 2X, 1500 MG/KG GAV EHEN 2X AND 75 MG/KG SC DMAB 3X GIVEN OVER THE INITIAL 3 WK AT 3-4 D INTERVALS", "result": "6/14 (43%), 1/15 (7%), 84%, p<0.05"},
      {"measurement": "tumour outcome (control, treated, inhibition, significance)", "setting": "53609-64-6, N-ETHYL-N-HYDROXYETHYLNITROSAMINE, 3,2'-DIMETHYL-1,4-, 53609-64-6, N-ETHYL-N-HYDROXYETHYLNITROSAMINE, 3,2'-DIMETHYL-1,4-, 0.2% IN DIET FOR 4 WK BEGINNING 1 D PRIOR TO FIRST CARCINOGEN DOSE (STUDY DURATION: 36 WK), Target Tissue: Type of Lesion: KIDNEY: ADENOMA, Dose [Carcinogen]: 1000 MG/KG BW DHPN TWICE, 1500 MG/KG EHEN TWICE, 75 MG/KG BW DMAB 3 TIMES, SEQUENTIALLY OVER 3 WK", "result": "6/10 (60%), 7/13 (54%), 10%, not significant"},
      {"measurement": "tumour outcome (control, treated, inhibition, significance)", "setting": "53609-64-6, N-ETHYL-N-HYDROXYETHYLNITROSAMINE, 3,2'-DIMETHYL-1,4-, 53609-64-6, N-ETHYL-N-HYDROXYETHYLNITROSAMINE, 3,2'-DIMETHYL-1,4-, 0.2% IN DIET FOR 4 WK BEGINNING 1 D PRIOR TO FIRST CARCINOGEN DOSE (STUDY DURATION: 36 WK), Target Tissue: Type of Lesion: LUNG: ADENOMA, Dose [Carcinogen]: 1000 MG/KG BW DHPN TWICE, 1500 MG/KG EHEN TWICE, 75 MG/KG BW DMAB 3 TIMES, SEQUENTIALLY OVER 3 WK", "result": "5/10 (50%), 6/13 (46%), 8%, not significant"},
      {"measurement": "tumour outcome (control, treated, inhibition, significance)", "setting": "53609-64-6, N-ETHYL-N-HYDROXYETHYLNITROSAMINE, 3,2'-DIMETHYL-4-AMINO-, 53609-64-6, N-ETHYL-N-HYDROXYETHYLNITROSAMINE, 3,2'-DIMETHYL-4-AMINO-, 0.2% IN DIET FOR 32 WK BEGINNING 1 WK POST CARCINOGEN TREATMENT (STUDY DURATION: 36 WK), Target Tissue: Type of Lesion: KIDNEY: ADENOMA, Dose [Carcinogen]: 1000 MG/KG BW DHPN TWICE, 1500 MG/KG BW EHEN TWICE, 75 MG/KG BW 3 TIMES ADMINISTERED OVER FIRST 3 WK", "result": "6/14 (43%), 5/15 (33%), 23% , not significant"},
      {"measurement": "tumour outcome (control, treated, inhibition, significance)", "setting": "53609-64-6, N-ETHYL-N-HYDROXYETHYLNITROSAMINE, 3,2'-DIMETHYL-4-AMINO-, 53609-64-6, N-ETHYL-N-HYDROXYETHYLNITROSAMINE, 3,2'-DIMETHYL-4-AMINO-, 0.2% IN DIET FOR 32 WK BEGINNING 1 WK POST CARCINOGEN TREATMENT (STUDY DURATION: 36 WK), Target Tissue: Type of Lesion: KIDNEY: NEPHROBLASTOMA, Dose [Carcinogen]: 1000 MG/KG BW DHPN TWICE, 1500 MG/KG BW EHEN TWICE, 75 MG/KG BW 3 TIMES ADMINISTERED OVER FIRST 3 WK", "result": "2/14 (14%), 2/15 (13%), 7%, not significant"},
      {"measurement": "tumour outcome (control, treated, inhibition, significance)", "setting": "53609-64-6, N-ETHYL-N-HYDROXYETHYLNITROSAMINE, 3,2'-DIMETHYL-4-AMINO-, 53609-64-6, N-ETHYL-N-HYDROXYETHYLNITROSAMINE, 3,2'-DIMETHYL-4-AMINO-, 0.2% IN DIET FOR 32 WK BEGINNING 1 WK POST CARCINOGEN TREATMENT (STUDY DURATION: 36 WK), Target Tissue: Type of Lesion: KIDNEY: TRANSITIONAL CELL CARCINOMA, Dose [Carcinogen]: 1000 MG/KG BW DHPN TWICE, 1500 MG/KG BW EHEN TWICE, 75 MG/KG BW 3 TIMES ADMINISTERED OVER FIRST 3 WK", "result": "1/14 (7%), 1/15 (7%), 0%, not significant"}
    ]}
  ]
}
